Measurements from US20040063156A1, “Materials and methods relating to the diagnosis and treatment of diabetes and obesity” (Rodaris Pharmaceuticals Limited, priority 1996, published 2004).

Assay: Urinary excretion of IPG P-type in diabetic patients treated with metformin
Type: in vivo, human
Settings: overweight/obese NIDDM patients on metformin, urine, FIGS. 5A,B
From the text: A cross-sectional study was undertaken with random spot samples collected at outpatients clinics. The patients included NIDDM subjects controlled by diet alone, by sulphonylureas, by metformin, by insulin or a combination of any of these treatments. Only a limited number of IDDM subjects were available. In the present survey, male subjects were used, this avoided complications arising from varying hormone profiles in women of different ages, in particular with or without HRT or contraceptive pills. […] In addition to the measurement of IPG P-type and IPG A-type in urine the following clinical data was made available: […]

CN(C)C(=N)N=C(N)N [metformin]
effect on pattern of excretion of IPG P-type: fails to restore the pattern of excretion of IPG P-type to normal
